The target of one test is T1, SGLT2 (Homo sapiens, UniProt P31639).
T1 construct: expressed in transfected cells
T1 sequence (P31639 1-672): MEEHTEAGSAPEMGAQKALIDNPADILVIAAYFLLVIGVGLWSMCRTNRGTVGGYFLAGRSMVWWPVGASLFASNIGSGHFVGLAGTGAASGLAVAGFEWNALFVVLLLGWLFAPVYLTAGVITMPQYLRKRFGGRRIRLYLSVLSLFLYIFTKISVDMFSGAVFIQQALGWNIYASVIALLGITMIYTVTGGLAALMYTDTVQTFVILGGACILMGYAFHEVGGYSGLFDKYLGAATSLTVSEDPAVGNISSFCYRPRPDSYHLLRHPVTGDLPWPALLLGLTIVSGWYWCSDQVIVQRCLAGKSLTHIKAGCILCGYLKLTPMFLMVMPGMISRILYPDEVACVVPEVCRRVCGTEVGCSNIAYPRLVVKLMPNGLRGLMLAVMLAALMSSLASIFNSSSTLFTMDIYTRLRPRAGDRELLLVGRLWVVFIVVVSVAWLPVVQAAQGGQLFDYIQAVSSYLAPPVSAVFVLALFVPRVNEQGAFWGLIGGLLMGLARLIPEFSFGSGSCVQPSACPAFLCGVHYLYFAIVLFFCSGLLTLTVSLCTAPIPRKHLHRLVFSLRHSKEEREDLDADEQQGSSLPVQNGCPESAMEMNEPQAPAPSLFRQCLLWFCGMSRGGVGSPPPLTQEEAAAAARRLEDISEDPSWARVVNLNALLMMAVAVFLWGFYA
In words: 14C-AMG uptake in BHK cells transfected with SGLT2. Format: cell-based. The conditions noted are these: 37° C., 90 min. The text has this: (§1) The compounds can be tested on their SGLT inhibition properties by means of BHK cells expressing SGLT1 and SGLT2. The production of the cells and the testing can be carried out as described below.
To construct the SGLT2 expression vector (KL224), the SLC5A2 gene (homologous to NM_003041) was amplified from a cDNA library using standard PCR technology and cloned over NheI/XhoI sites into PCI-neo expression vector (Promega) containing neomycin as a selection marker. In this vector, transcription uses the enhancer/promoter of human cytomegalovirus and the SV40 polyadenylation signal.
(§2) The final vector KL224 together with an additional vector containing a dihydrofolate reductase gene as a selection marker was introduced into cells. Transfection into BHK21 cells (ATCC CCL-10), cultivated in DMEM medium (GIBCO/BRL), supplemented with 10% foetal calf serum (FCS) and 20 mM glutamine, was carried out using calcium phosphate transfections according to Graham, F. L. and van der Ebb, A. J. (1973), Virology 52: 456 with 5-20 μg of uncut plasmids for 10^7 cells. Stable transfectants were selected in medium containing 1 mg/ml of G418 (GIBCO/BRL) and 20-5000 nM methotrexate as final concentration, where only cells which expressed the neomycin gene and overexpressed the dhfr gene were able to grow. After growth for 2-3 weeks, the cells were cloned (0.5 cells/well) and the clones were investigated for SGLT expression in the radioactive uptake test,
The uptake of ^14C-α-methyl-D-glucopyranoside (AMG) in, for example, Xenopus oocytes injected with the corresponding cRNA has been described in principle (for example Wen-Sen Lee et al. (1994), J. Biol. Chem. 269, 12032-12039; Guofeng You et al. (1995), J. Biol. Chem. 270, 29365-29371).
(§3) A 96-well cell-based assay was developed and adapted to HIS requirements:
(§4) BHK cells (transfected with SGLT1 or SGLT2) were seeded into 96-well microtitre plates (Cultureplates, Perkin Elmer). After at least 24 h, medium was removed and the cell layer was washed with assay buffer (140 mM NaCl, 2 mM KCl, 1 mM CaCl2, 1 mM MgCl2, 10 mM HEPES, 5 mM Tris, adjusted with 1 M KOH to pH 7.4), After addition of 40 μl of assay buffer, 50 μl of AMG ([…] for SGLT1 and 2 mM for SGLT2) in the presence or absence of compounds, the cells were incubated in a total volume of 100 μl at 37° C. for 90 min. Supernatant was removed by suction and discarded. The cells were washed and lysed by addition of 50 μl of water. After 10 min at room temperature, 200 μl of Microscint 40 (Perkin Elmer) were added. The radioactivity was counted in a Topcount microplate scintillation counter (Perkin Elmer). The non-specific uptake was determined in sodium-free assay buffer (266 mM sucrose, 2 mM KCl, 1 mM CaCl2, 1 mM MgCl2, 10 mM HEPES, 5 mM Tris, adjusted to pH 7.4 using 1 M KOH).

In another test the target is T2, SGLT1 (Homo sapiens, UniProt P13866).
T2 construct: expressed in transfected cells
T2 sequence (P13866 1-664): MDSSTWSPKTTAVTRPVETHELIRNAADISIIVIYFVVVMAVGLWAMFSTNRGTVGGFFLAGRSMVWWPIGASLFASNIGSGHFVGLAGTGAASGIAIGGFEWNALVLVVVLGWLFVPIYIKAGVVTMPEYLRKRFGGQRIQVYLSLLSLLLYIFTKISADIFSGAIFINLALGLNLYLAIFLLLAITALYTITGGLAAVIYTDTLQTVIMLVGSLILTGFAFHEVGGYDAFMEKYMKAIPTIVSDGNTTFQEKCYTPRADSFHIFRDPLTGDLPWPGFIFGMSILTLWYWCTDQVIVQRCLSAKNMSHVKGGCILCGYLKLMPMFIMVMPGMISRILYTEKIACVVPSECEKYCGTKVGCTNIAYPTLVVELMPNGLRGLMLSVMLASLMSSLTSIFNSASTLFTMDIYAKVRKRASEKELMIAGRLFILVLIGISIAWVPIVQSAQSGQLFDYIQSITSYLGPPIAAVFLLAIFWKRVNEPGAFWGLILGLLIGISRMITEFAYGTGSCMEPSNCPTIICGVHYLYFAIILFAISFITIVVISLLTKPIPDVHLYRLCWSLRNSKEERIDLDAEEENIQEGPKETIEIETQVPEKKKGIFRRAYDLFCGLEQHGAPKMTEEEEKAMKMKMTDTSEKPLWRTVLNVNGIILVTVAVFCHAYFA
Nature of the test: 14C-AMG uptake in BHK cells transfected with SGLT1. The following applies: 37° C., 90 min. It counts as cell-based.
Description: as §1
To construct the SGLT1 expression vector (KL225), the SLC5A1 gene (homologous to NM_000343) was amplified from a cDNA library using standard PCR technology and cloned over NheI/XhoI sites into the cDNA3.1 expression vector (Invitrogen) containing neomycin as a selection marker. In this vector, transcription uses the enhancer/promoter of human cytomegalovirus.
as §2, with “KL225” for “KL224”, “radioactivity” for “radioactive”, “test. […]” for “test,”
as §3, §4

SMILES strings stand for the structures.

By IC50 is commonly meant the concentration that inhibits the measured activity by half. A higher IC50 goes with weaker potency in that assay. As for `Cc1cccc(C)c1Nc1c(-c2ccccc2-c2nnc(N(C)C)o2)nc2ccc(F)cn12` [Compound C4], the figures for the IC50 at SGLT2 and against SGLT1 were 10 to 1000 nM and 1000 to 10000 nM, respectively.
Take `Cc1cccc(C)c1Nc1c(-c2ccccc2-c2cncnc2)nc2ccccn12` [Compound A9]: the concentration for half-maximal inhibition (IC50) is 10 to 1000 nM on SGLT2 and 1000 to 10000 nM at SGLT1.
The corresponding values for `Cc1cccc(C)c1Nc1c(-c2c(-n3cccn3)cccc2-n2cccn2)nc2ccc(F)cn12` [Compound A5, (2,6-Dimethylphenyl)-[2-(2,6-dipyrazol-1-yl-phenyl)-6-fluoroimidazo[1,2-a]pyridin-3-yl]-amine] are 1000 to 10000 nM and 1000 to 10000 nM.
In the case of `Cc1nc(-c2ccccc2-c2nc3ccc(F)cn3c2Nc2c(C)cccc2C)no1` [Compound A10], the IC50 fell in the range of 10 to 1000 nM against SGLT2 and 1000 to 10000 nM against SGLT1.
As to `Cc1cccc(C)c1Nc1c(-c2ccccc2-c2cccs2)nc2ccc(F)cn12` [Compound A3], the values for the IC50 on SGLT2 and against SGLT1 were 1000 to 10000 nM and above 10000 nM, respectively.
On the same counts, the results for `CNc1nnc(-c2sc3ccccc3c2-c2nc3ccc(F)cn3c2Nc2c(C)cccc2C)o1` [Compound C13, (2,6-Dimethylpheny1)-{6-fluoro-2-[2-(5-methylamino-1,3,4-oxadiazol-2-y1)-benzo[b]thiophen-3-yl]imidazo[1,2-a]pyridin-3-yl}amine] are 10 to 1000 nM and 10 to 1000 nM.
With `CNc1nnc(-c2ccccc2-c2nc3ccc(F)cn3c2Nc2c(C)cccc2C)o1` [Compound C1, (2,6-dimethylphenyl)-{6-fluoro-2-[2-(5-methylamino-1,3,4-oxadiazol-2-yl)phenyl]imidazo[1,2-a]pyridin-3-yl}amine], the IC50 was in the range of 10 to 1000 nM at SGLT2 and 1000 to 10000 nM against SGLT1.
Regarding `Cc1cccc(C)c1Nc1c(-c2c(Cl)cccc2-c2nnc(N)o2)nc2ccc(F)cn12` [Compound B2], the IC50 at SGLT2 was 10 to 1000 nM; on SGLT1, above 10000 nM.
The corresponding values for `Cc1cccc(C)c1Nc1c(-c2ccccc2-c2cccc(C(N)=O)c2)nc2ccccn12` [Compound A4] are 1000 to 10000 nM and 1000 to 10000 nM.
For the compound `Cc1cccc(C)c1Nc1c(-c2ccccc2-n2cccn2)nc2ccc(F)cn12` [Compound A6], the IC50 against SGLT2 was 1000 to 10000 nM; against SGLT1 it was above 10000 nM.
Regarding `CNc1nnc(-c2c(-c3nc4ccc(F)cn4c3Nc3c(C)cccc3C)c3ccccc3n2C)o1` [Compound C12, (2,6-Dimethylphenyl)-{6-fluoro-2-[1-methyl-2-(5-methylamino-1,3,4-oxadiazol-2-yl)-1H-indol-3-yl]imidazo[1,2-a]pyridin-3-yl}amine], the IC50 fell in the range of 10 to 1000 nM against SGLT2 and 1000 to 10000 nM against SGLT1.
The corresponding values for `Cc1cccc(C)c1Nc1c(-c2ccccc2-c2nnc(N)o2)nc2ccc(F)cn12` [Compound B1, {2-[2-(5-amino-1,3,4-oxadiazol-2-yl)phenyl]-6-fluoroimidazo[1,2-a]pyridin-3-yl}-(2,6-dimethylphenyl)amine] are 10 to 1000 nM and above 10000 nM.
On the same counts, the results for `CNc1nnc(-c2cc(O)c(O)cc2-c2nc3ccc(F)cn3c2Nc2c(C)cc(F)cc2C)o1` [Compound C2] are 1000 to 10000 nM and above 10000 nM.
On the same counts, the results for `CNc1nnc(-c2cc(OC)c(OC)cc2-c2nc3ccc(F)cn3c2Nc2c(C)cc(F)cc2C)o1` [Compound C3] are 1000 to 10000 nM and above 10000 nM.
Turning to `Cc1cccc(C)c1Nc1c(-c2ccccc2-c2ccc(C(N)=O)o2)nc2ccc(F)cn12` [Compound A7], the IC50 at SGLT2 and at SGLT1 was 1000 to 10000 nM each time.
In the case of `Cc1cccc(C)c1Nc1c(-c2ccccc2-c2cccc(C(=O)O)c2)nc2ccccn12` [Compound A2, 2′-[3-(2,6-Dimethylphenylamino)imidazo [1,2-a]pyridin-2-yl]biphenyl-3-carboxylic acid], the IC50 against SGLT2 and against SGLT1 was above 10000 nM throughout.
With `Cc1cccc(C)c1Nc1c(-c2ccccc2-c2cccnc2)nc2ccc(F)cn12` [Compound A11], the results for the IC50 against SGLT2 and against SGLT1 were 10 to 1000 nM and 1000 to 10000 nM, respectively.
Regarding `Cc1cccc(C)c1Nc1c(-c2ccccc2-c2nccs2)nc2ccc(F)cn12` [Compound A1, (2,6-dimethylphenyl)-[6-fluoro-2-(2-thiazol-2-ylphenyl)-imidazo[1,2-a]pyridin-3-yl]amine], the IC50 on SGLT2 and at SGLT1 was above 10000 nM each time.
Regarding `Cc1cccc(C)c1Nc1c(-c2ccccc2-c2ccc([N+](=O)[O-])s2)nc2ccc(F)cn12` [Compound A8], the IC50 on SGLT2 and against SGLT1 was 1000 to 10000 nM throughout.
For `CCNc1nnc(-c2ccccc2-c2nc3ccc(F)cn3c2Nc2c(C)cccc2C)o1` [Compound C5], the IC50 at SGLT2 is 10 to 1000 nM; against SGLT1 it was 1000 to 10000 nM.

These data come from patent US8153649B2, “3-aminoimidazo 1,2-A pyridine derivatives having an SGLT1- and SGLT2-inhibiting action for the treatment of type 1 and type 2 diabetes” (Merck Patent Gesellschaft mit beschrankter Haftung, priority 2006, dated 2012).
